Tests used:
[1] = dog, in vivo
Experimental: As a control formulation, enteric-coated (Eudragit® L100-55, Essen, Germany) capsules containing commercial Minirin® drug tablets (6 pieces containing 1.2 mg desmopressin in total) was given orally to the dog.
A 3D printed clamp containing a cavity for the suction patch containing 1.2 mg desmopressin, 1.2 mg PVA, and 5.7 mg NaTaC was attached to the dog's mucosa, ensuring similar conditions (i.e., enclosed environment, close contact to the mucosa, same sample preparation and loading) as the applied suction patch, but […] and without negative pressure and the resulting tissue deformation.
The dogs were anesthetized for the duration of the experiment (3 h). […] Blood samples were collected in K2EDTA tubes immediately followed by centrifugation at 1700 G for 10 min at 4° C. Subsequently, the plasma was stored in clear polypropylene vials at −80° C. until further analysis. The drug plasma concentration was evaluated using LC-MS/MS method. Briefly, an aliquot of 900 μL dog plasma sample was mixed with 10 μL internal standard (Goserelin; 25 ng/mL) and 300 μL 4% H3PO4 acidified water into 1.5 mL Eppendorf tubes. The plasma sample was then extracted using Oasis™ WAX solid-phase extraction cartridges. […] Samples were analyzed in TOF-MRM mode with a quantification limit of […]. […]

[2] = pharmacokinetic study of semaglutide mucosal suction patch in beagle dogs; format: in vivo; conditions: patch with 9 mg semaglutide, 1.2 mg PVA, 11.7 mg NaTaC
Experimental: Briefly, an aliquot of 900 μL dog plasma sample was mixed with 10 μL internal standard (Goserelin; 25 ng/mL) and 300 μL 4% H3PO4 acidified water into 1.5 mL Eppendorf tubes. The plasma sample was then extracted using Oasis™ WAX solid-phase extraction cartridges.
The drug plasma concentration was evaluated using an LC-MS/MS method as described in Example 11.

porcine buccal mucosa [3] = test: ex vivo effect of hypobaric pressure on diffusion of marker molecule in porcine buccal mucosa; format: in vitro ADME; conditions: 54 μg Cy5, 2.1 mg C10, 1.2 mg PVA, pressure set to 30 kPa, 37° C., 3 h
Experimental: The device could continuously monitor and control the pressure inside the patch to a constant value, e.g., 30 kPa. For the application, the buccal tissue was prepared as described above and placed in a 6-well plate that is filled with DMEM buffer. […] Subsequently, the pressure was set by the reduction valve to 30 kPa and left in the 37° C. incubators for 3 h. Afterwards, the vacuum pump was turned off and the mucosal suction patches were detached. The tissue specimen was processed as described before for fluorescent imaging. The intensity of each image was converted to the equivalent of 150 ms exposure time to allow the comparability. When plotting the fluorescent intensity-distance profile, the absolute intensity was utilized instead of the normalized in order to compare the pressure-related permeation enhancing effects among different samples.

[4] = oral formulation, even in the presence of permeation enhancers; cited from earlier work
porcine buccal mucosa [5] = test: ex vivo permeation of surrogates through porcine buccal mucosa with mucosal suction patch; format: in vitro ADME; conditions: patch with surrogate, 1.2 mg PVA, 5.7 mg NaTaC, 3 h
Experimental: Specimen were permeabilized with a 0.5% Trition™ X100 PBS buffered solution for 15 min, washed for 3 min in PBS and incubated with a PBS buffered solution of 0.1% iFluor™ 488-conjugated phalloidin (F-Actin stain) and 0.1% Hoechst 33342 (Nucleous stain) for 30 min.
Fluorescence images were obtained with a widefield microscope (Leica DMI 6000) at 20× magnification in the tile scan mode and merged to a single image. The specimen was excited at 590-650 nm and the emission filtered from 662-738 nm. To evaluate the penetration depth of the surrogate, images were processed as grayscale with Fiji-ImageJ™ software. Line profiles of the grayscale intensity were obtained by drawing multiple straight lines vertical to the surface of the mucosa lining. The obtained intensity-distance profiles were transferred to Microsoft Excel™ and MatLab™ for further processing. The autofluorescence was first corrected by subtracting the averaged baseline intensity multiplied by 3 times its standard deviation obtained from a lower laying region of the tissue. The maximum intensity was set to 100% and the corresponding distance value was set to zero to normalize the drug distribution profile. […]
The molecular weight range of administrable drugs was evaluated ex-vivo on porcine buccal mucosa tissue by applying drug surrogates with different molecular weights. […]

Molecule: NC(=O)CC[C@@H]1NC(=O)[C@H](Cc2ccccc2)NC(=O)[C@H](Cc2ccc(O)cc2)NC(=O)CCSSC[C@@H](C(=O)N2CCC[C@H]2C(=O)N[C@H](CCCN=C(N)N)C(=O)NCC(N)=O)NC(=O)[C@H](CC(N)=O)NC1=O [desmopressin]
- bioavailability higher than commercial tablets [1]: 35%

Molecule: CC[C@H](C)[C@H](NC(=O)[C@H](Cc1ccccc1)NC(=O)[C@H](CCC(=O)O)NC(=O)[C@H](CCCCNC(=O)COCCOCCNC(=O)COCCOCCNC(=O)CC[C@H](NC(=O)CCCCCCCCCCCCCCCCC(=O)O)C(=O)O)NC(=O)[C@H](C)NC(=O)[C@H](C)NC(=O)[C@H](CCC(N)=O)NC(=O)CNC(=O)[C@H](CCC(=O)O)NC(=O)[C@H](CC(C)C)NC(=O)[C@H](Cc1ccc(O)cc1)NC(=O)[C@H](CO)NC(=O)[C@H](CO)NC(=O)[C@@H](NC(=O)[C@H](CC(=O)O)NC(=O)[C@H](CO)NC(=O)[C@@H](NC(=O)[C@H](Cc1ccccc1)NC(=O)[C@@H](NC(=O)CNC(=O)[C@H](CCC(=O)O)NC(=O)C(C)(C)NC(=O)[C@@H](N)Cc1cnc[nH]1)[C@@H](C)O)[C@@H](C)O)C(C)C)C(=O)N[C@@H](C)C(=O)N[C@@H](Cc1c[nH]c2ccccc12)C(=O)N[C@@H](CC(C)C)C(=O)N[C@H](C(=O)N[C@@H](CCCNC(=N)N)C(=O)NCC(=O)N[C@@H](CCCNC(=N)N)C(=O)NCC(=O)O)C(C)C [semaglutide]
- plasma concentrations [2]: therapeutic relevant plasma concentrations

Molecule: Cy5
- effect of negative pressure on drug permeation (porcine buccal mucosa [3]): effectively enhanced the drug permeation

Molecule: octreotride
- oral bioavailability [4]: 0.5-1%

B1: Alexa647-Ovalbumin: Alexa647 dye linked to ovalbumin (≈5.5 nm, 45 kDa) (conjugate, UniProt P01012 2-386, looked up)
Ovalbumin: GSIGAASMEFCFDVFKELKVHHANENIFYCPIAIMSALAMVYLGAKDSTRTQINKVVRFDKLPGFGDSIEAQCGTSVNVHSSLRDILNQITKPNDVYSFSLASRLYAEERYPILPEYLQCVKELYRGGLEPINFQTAADQARELINSWVESQTNGIIRNVLQPSSVDSQTAMVLVNAIVFKGLWEKAFKDEDTQAMPFRVTEQESKPVQMMYQIGLFRVASMASEKMKILELPFASGTMSMLVLLPDEVSGLEQLESIINFEKLTEWTSSNVMEERKIKVYLPRMKMEEKYNLTSVLMAMGITDVFSSSANLSGISSAESLKISQAVHAAHAEINEAGREVVGSAEAGVDAASVSEEFRADHPFLFCIKHIATNAVLFFGRCVSP
modifications: Alexa647 dye
- crossing of the mucosal epithelium (porcine buccal mucosa [5]): reach deep inside
